Test results taken from patent publication US20230330064A1, “TYROSINE, TRYPTOPHAN AND PHENYLALANINE AS mTOR AGONISTS MEDIATING PROTEASOME DYNAMICS, COMPOSITIONS, METHODS AND USES THEREOF IN THERAPY, AND PROGNOSTIC METHODS FOR DRUG-RESISTANCE” (Technion Research & Development Foundation Limited, priority 2020, published 2023).

What was measured:
tumor = conditions: in vivo; cited from earlier work
[1] = biological target: L-type amino acid transporter 1 (LAT-1) (Homo sapiens, UniProt Q01650); conditions: cited from earlier work
[2] = test system: human bladder cancer T24 cell line; conditions: cited from earlier work
26S proteasome = experiment: Proteasome subcellular localization in cultured cells (immunofluorescence, western blot of nuclear fractions); assay type: cell-based; conditions: for proteasome localization without exogenous starvation: non-stressed cells, complete medium; for starvation-induced proteasome translocation from the nucleus to the cytosol: substance added to amino acid starvation medium, 8 h
Protocol: Cells were seeded on glass cover slips for 36 h. Following the indicated treatments, they were fixed with 4% PFA for 15 min, washed with (phosphate-buffered saline) PBS and incubated in PBS containing 10% goat serum for 1h at room temperature, followed by 2 h incubation with the indicated primary antibody. Following extensive wash with PBS, the fixed cells were incubated with the relevant secondary antibody for 1 h, washed and mounted. Images were acquired using Zeiss LSM 700 confocal microscope (Zeiss, Oberkochen, Germany).
The proteasome subunits α6, β1, and PSMD1 were visualized via indirect immunofluorescence, using primary and secondary antibodies listed under Key Resources Table. To observe the proteasome in live cells, we expressed the cDNAs of the β4, Rpn2, Rpn6, and Rpn13 proteasome subunits C-terminally fused with GFP. Photoconversion of proteasome-fused Dendra2 was carried out as previously described (McKinney et al., 2009 Nat Methods. 131-133).
Cells were incubated for 20 min in fractionation buffer [20 mM HEPES pH 7.3, 10 mM KCl, 5 mM ATP, 5 mM MgCl2, and protease inhibitor cocktail (Roche)], followed by the addition of NP-40 (to 0.1%). They were then mixed thoroughly and centrifuged at 1,000×g for 5 min. The supernatant was collected as cytosolic fraction, and the pellet (nuclei) was washed twice with PBS. To dissolve the nuclear pellet, fractionation buffer supplemented with 0.5% sodium deoxycholate was added followed by sonication.
Cells were washed twice with ice cold PBS and scraped into lysis buffer (50 mM Tris-HCl, pH 7.4, 130 mM NaCl, 0.5% NP-40) supplemented with freshly added protease inhibitor cocktail, 5 mM ATP, 10 mM iodoacetamide, and 5 mM N-ethyl maleimide. Protein concentration was measured by the BCA assay according to the manufacturer's instructions (Pierce, Rockford, IL). 30 μg of cellular protein were resolved via SDS-PAGE, transferred to a nitrocellulose membrane and immunoblotted with the appropriate antibody.

[3] = biological target: proteasome subunit beta type-5 (PSMB5) (Homo sapiens, UniProt P20618+P28074); conditions: cited from earlier work

Chain of L-type amino acid transporter 1 (LAT-1) (Q01650 whole entry): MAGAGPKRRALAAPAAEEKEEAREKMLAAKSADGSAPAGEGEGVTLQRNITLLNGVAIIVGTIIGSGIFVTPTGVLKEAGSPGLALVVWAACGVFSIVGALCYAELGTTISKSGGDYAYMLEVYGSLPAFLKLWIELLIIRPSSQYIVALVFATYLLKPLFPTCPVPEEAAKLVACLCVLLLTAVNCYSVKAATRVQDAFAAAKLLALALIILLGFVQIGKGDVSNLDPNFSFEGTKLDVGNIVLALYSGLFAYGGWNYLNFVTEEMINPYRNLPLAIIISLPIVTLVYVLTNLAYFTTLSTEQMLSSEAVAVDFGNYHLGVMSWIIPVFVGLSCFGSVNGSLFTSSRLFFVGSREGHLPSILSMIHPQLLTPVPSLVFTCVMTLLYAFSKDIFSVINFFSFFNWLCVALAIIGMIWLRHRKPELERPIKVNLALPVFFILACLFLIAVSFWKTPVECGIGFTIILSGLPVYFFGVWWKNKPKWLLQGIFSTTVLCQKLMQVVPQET
Chain of L-type amino acid transporter 1 (LAT-1) (P08195 102-630 partner): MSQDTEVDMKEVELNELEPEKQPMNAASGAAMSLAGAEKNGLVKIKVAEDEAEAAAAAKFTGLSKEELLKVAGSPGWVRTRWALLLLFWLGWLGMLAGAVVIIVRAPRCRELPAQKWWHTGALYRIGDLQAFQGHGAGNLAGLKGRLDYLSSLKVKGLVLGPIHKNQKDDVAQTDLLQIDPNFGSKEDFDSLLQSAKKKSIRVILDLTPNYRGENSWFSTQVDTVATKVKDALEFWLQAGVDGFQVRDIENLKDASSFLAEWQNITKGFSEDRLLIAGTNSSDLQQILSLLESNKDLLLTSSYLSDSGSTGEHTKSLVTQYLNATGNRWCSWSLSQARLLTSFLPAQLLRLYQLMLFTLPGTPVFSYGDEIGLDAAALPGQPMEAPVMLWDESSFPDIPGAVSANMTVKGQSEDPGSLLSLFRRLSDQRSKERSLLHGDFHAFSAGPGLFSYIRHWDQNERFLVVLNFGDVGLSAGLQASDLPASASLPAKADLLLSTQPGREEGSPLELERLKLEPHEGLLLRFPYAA

N[C@@H](Cc1cccc(Oc2ccc3ccccc3c2)c1)C(=O)O [3-(2-naphthyloxy)-L-phenylalanine]
tumor growth (tumor): inhibition of tumor growth
intracellular 14C-Leucine [1]: reduction
T24 cell line proliferation [2]: inhibition

Cn1cnc(N)c2ncnc1-2 [3-MA, 3-methyl adenine]
proteasome localization without exogenous starvation (26S proteasome): induced the same effect

CC(C)C[C@H](NC(=O)CNC(=O)c1cc(Cl)ccc1Cl)B(O)O [Ixazomib, N^2-(2,5-Dichlorobenzoyl)-N-[(1R)-1-(dihydroxyboryl)-3-methylbutyl]glycinamide]
mode of PSMB5 inhibition [3]: selectively and reversibly inhibits

CCC(=O)N1CCN(c2ccc(-n3c(=O)ccc4cnc5ccc(-c6cnc7ccccc7c6)cc5c43)cc2C(F)(F)F)CC1 [Torin1]
proteasome localization without exogenous starvation (26S proteasome): induces nuclear export of both 20S and 19S sub-complexes

N[C@@H](Cc1c[nH]c2ccccc12)C(=O)O [Trp, Tryptophan]
starvation-induced proteasome translocation from the nucleus to the cytosol (26S proteasome): significant effect

N[C@@H](Cc1ccc(O)cc1)C(=O)O [Tyr, 4-hydroxyphenylalanine]
starvation-induced proteasome translocation from the nucleus to the cytosol (26S proteasome): significant effect

CC(C)C[C@H](NC(=O)[C@H](CCc1ccccc1)NC(=O)CN1CCOCC1)C(=O)N[C@@H](Cc1ccccc1)C(=O)N[C@@H](CC(C)C)C(=O)[C@@]1(C)CO1 [carfilzomib, (2S)-4-Methyl-N-[(2S)-1-[[(2S)-4-methyl-1-[(2R)-2-methyloxiran-2-yl]-1-oxopentan-2-yl]amino]-1-oxo-3-phenylpropan-2-yl]-2-[[(2S)-2-[(2-morpholin-4-ylacetyl)amino]-4-phenylbutanoyl]amino]pentanamide]
mode of PSMB5 inhibition [3]: irreversibly

C[C@@H]1C[C@@H]([C@H](O)CC2CC(=O)NC(=O)C2)C(=O)[C@@H](C)C1 [cycloheximide]
reappearance of the proteasome in the nucleus after amino acid replenishment (26S proteasome; 8 h starvation, then replenishment in presence of the substance): does not prevent the reappearance of the proteasome in the nucleus

Ivermectin
proteasome localization without exogenous starvation (26S proteasome): cytosolic accumulation

Tunicamycin
proteasome localization without exogenous starvation (26S proteasome): inducing proteasome nuclear export
